The values that follow come from patent publication US12187681B2 (Shanghai East Hospital, priority 2019, dated 2025).

Where only a bound is given, the exact number is not on record here.

T3 sequence (Q13936 1-2138 isoform Q13936-12): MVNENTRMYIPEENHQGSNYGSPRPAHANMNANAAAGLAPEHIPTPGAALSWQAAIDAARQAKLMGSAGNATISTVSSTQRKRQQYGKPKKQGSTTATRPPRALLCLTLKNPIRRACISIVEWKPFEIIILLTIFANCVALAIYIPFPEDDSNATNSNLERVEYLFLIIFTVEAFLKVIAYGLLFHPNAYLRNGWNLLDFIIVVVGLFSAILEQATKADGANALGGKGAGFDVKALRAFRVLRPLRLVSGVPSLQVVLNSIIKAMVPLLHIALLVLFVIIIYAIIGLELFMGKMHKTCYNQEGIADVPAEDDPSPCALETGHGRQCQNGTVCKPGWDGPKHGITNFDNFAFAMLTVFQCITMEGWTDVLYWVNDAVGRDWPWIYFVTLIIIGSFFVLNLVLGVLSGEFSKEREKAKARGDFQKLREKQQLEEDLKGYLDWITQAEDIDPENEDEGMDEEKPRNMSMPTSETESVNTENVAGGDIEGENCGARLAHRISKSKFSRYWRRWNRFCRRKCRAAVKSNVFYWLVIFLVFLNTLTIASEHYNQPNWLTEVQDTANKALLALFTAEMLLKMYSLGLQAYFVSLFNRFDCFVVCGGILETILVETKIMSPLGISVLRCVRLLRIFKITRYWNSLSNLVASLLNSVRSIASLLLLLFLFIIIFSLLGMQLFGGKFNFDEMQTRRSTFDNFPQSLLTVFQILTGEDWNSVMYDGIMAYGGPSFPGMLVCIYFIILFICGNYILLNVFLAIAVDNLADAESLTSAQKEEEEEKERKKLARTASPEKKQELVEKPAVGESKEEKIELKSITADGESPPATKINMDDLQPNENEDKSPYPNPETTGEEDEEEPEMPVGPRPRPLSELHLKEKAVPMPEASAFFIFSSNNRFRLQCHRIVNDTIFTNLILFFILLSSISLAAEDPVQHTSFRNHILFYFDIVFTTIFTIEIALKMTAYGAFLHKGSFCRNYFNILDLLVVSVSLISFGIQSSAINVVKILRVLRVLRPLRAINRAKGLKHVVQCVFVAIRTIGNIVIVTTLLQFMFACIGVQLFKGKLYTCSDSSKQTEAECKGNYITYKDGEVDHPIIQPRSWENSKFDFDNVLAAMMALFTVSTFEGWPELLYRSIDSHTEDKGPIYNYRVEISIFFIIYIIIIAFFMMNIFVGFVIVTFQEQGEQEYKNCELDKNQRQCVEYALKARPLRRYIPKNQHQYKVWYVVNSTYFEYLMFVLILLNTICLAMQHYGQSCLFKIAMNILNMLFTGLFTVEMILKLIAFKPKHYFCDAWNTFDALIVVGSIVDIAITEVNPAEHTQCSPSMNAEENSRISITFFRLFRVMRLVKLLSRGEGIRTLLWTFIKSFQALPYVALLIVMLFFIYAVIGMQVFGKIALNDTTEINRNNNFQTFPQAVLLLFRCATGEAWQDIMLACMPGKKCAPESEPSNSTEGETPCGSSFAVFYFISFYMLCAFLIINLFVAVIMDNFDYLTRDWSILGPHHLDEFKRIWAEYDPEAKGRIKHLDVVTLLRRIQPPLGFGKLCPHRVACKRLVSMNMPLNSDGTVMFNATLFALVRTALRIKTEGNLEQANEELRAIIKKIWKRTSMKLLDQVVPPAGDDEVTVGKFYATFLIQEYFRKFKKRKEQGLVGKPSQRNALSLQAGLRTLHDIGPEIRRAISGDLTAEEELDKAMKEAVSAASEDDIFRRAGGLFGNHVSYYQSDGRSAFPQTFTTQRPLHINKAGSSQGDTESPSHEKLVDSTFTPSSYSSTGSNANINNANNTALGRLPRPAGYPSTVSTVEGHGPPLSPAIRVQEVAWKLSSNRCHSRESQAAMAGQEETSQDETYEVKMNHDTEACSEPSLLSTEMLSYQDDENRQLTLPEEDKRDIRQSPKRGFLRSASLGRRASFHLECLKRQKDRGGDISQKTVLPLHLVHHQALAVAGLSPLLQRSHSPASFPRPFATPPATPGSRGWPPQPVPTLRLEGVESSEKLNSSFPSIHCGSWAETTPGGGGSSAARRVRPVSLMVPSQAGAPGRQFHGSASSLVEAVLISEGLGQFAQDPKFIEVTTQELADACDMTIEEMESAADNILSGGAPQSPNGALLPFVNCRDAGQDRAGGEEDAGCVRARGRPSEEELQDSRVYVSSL
T3 sequence (Q08289 1-605 isoform Q08289-2 partner): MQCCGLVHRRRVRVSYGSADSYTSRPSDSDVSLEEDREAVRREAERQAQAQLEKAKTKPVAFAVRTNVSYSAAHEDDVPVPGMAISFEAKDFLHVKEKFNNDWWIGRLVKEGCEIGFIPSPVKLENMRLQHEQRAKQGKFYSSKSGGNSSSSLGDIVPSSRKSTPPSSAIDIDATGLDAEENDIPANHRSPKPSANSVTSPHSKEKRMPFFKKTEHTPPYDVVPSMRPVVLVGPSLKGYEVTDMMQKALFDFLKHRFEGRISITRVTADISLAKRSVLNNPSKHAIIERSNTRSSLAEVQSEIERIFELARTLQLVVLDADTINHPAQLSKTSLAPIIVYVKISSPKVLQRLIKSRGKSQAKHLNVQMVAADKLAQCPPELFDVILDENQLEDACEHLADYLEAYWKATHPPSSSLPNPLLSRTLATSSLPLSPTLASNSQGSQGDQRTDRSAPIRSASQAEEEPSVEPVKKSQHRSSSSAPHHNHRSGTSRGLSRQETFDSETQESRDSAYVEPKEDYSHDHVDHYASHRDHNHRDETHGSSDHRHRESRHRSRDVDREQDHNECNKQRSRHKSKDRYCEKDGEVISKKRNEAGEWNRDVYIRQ
T3 sequence (P54289 25-1091 isoform P54289-2 partner limits assumed): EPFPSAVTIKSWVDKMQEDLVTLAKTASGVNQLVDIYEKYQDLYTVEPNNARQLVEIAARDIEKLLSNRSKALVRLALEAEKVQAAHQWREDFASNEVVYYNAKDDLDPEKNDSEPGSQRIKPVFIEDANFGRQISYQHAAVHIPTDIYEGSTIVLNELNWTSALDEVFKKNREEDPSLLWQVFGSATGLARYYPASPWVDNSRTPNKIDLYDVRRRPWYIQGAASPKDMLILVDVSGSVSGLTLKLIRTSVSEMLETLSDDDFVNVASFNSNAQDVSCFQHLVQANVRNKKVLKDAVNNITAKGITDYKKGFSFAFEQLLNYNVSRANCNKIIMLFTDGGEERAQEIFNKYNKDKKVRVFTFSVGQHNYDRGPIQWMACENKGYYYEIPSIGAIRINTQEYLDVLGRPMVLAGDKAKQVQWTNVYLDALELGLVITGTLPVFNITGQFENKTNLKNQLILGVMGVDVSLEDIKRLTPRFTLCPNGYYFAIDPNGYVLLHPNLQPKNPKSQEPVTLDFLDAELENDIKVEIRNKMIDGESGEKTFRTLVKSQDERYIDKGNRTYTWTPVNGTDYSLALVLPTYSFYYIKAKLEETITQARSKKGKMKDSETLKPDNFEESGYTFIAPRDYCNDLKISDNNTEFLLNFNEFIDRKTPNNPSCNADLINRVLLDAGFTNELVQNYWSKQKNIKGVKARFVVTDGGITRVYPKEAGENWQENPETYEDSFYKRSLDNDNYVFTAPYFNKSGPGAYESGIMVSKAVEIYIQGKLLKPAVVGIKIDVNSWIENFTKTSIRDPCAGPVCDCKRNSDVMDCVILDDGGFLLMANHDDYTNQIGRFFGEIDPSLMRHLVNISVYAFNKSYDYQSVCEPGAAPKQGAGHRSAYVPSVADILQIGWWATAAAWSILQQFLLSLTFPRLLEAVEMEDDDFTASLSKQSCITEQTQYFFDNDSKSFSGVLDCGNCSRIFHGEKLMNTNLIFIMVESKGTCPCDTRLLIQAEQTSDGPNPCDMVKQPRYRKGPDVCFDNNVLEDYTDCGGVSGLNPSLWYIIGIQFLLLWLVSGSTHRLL
T3 sequence (P54289 957-1103 partner limits assumed): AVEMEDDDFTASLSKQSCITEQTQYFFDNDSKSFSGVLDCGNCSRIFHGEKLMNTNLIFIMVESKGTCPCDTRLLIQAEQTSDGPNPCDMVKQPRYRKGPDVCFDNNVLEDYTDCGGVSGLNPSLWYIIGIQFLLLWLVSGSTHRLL

The first series deals with T1, hERG (human ether-a-go-go related gene potassium channel, KCNH2) (Homo sapiens, UniProt Q12809).
T1 construct: expressed in transfected cells; host or cells: HEK293
Nature of the series: hERG channel whole-cell patch clamp (Ion Channel Activity Measurement). The series is classed as cell-based. The note with it: human, HEK293 cells expressing the human ERG potassium channel, pH 7.4, 1 μM test article, room temperature. A digest of the protocol: (§1)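 HEK293 cells stably expressing hERG (NM_000238) were recorded by whole-cell patch clamp at 23-25° C. Holding potential −80 mV, step to 30 mV for 2.5 s, tail currents at −50 mV for 4 s, pulses every 10 s. Each concentration was perfused low to high for 5 min or to steady state, with each cell as its own control.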
As usually defined, the inhibition is the percentage by which the read-out fell short of the control. Compound `CCN(CC)CCOc1ccc2ccccc2c1Nc1c(OC)ccc2ccccc12` [Compound A111-I-1, 2-(2-(diethylamino)ethoxy)-N-(2-methoxynaphthalen-1-yl)naphthalen-1-amine] gave an inhibition at 1 μM of 75 to 100%.
On the same count and under the same terms, the value for `O=S(=O)(Nc1ccc2ccccc2c1Cc1c(O)ccc2ccccc12)c1ccccc1` [Compound A026, N-(1-((2-hydroxynaphthalen-1-yl)methyl)naphthalen-2-yl)benzenesulfonamide] was < 25%; that for `Cc1cc2ccccc2c(Cc2c(O)ccc3ccccc23)c1O` [Compound A031, 1-((2-hydroxynaphthalen-1-yl)methyl)-3-methylnaphthalen-2-ol] was < 25%; that for `CCN(CC)CCOc1ccc2ccccc2c1Sc1c(O)ccc2ccccc12` [Compound A151, 1-((2-(2-(diethylamino)ethoxy)naphthalen-1-yl)thio)naphthalen-2-ol] was 75 to 100%.
With `Oc1ccc2ccccc2c1Cc1cccc2ccccc12` [Compound A052, 1-(naphthalen-1-ylmethyl)naphthalen-2-ol], the inhibition at 1 μM is < 25%.
As for `Oc1ccc2ccccc2c1Cc1c(O)ccc2ccccc12` [Compound A001, 1,1′-methylenebis(naphthalen-2-ol)], the inhibition at 1 μM was < 25%.

Still in this series, the particulars now being: human, HEK293 cells expressing the human ERG potassium channel, pH 7.4, 10 μM test article, room temperature.
As for `CCN(CC)CCOc1ccc2ccccc2c1Nc1c(OC)ccc2ccccc12` [Compound A111-I-1, 2-(2-(diethylamino)ethoxy)-N-(2-methoxynaphthalen-1-yl)naphthalen-1-amine], the inhibition at 10 μM lay within 75 to 100%.
The compound `O=S(=O)(Nc1ccc2ccccc2c1Cc1c(O)ccc2ccccc12)c1ccccc1` [Compound A026, N-(1-((2-hydroxynaphthalen-1-yl)methyl)naphthalen-2-yl)benzenesulfonamide] came in with an inhibition at 10 μM of 25 to 50%.
Same read-out and setting: the value for `Cc1cc2ccccc2c(Cc2c(O)ccc3ccccc23)c1O` [Compound A031, 1-((2-hydroxynaphthalen-1-yl)methyl)-3-methylnaphthalen-2-ol] was 50 to 75%.
On the same count and under the same terms, the value for `CCN(CC)CCOc1ccc2ccccc2c1Sc1c(O)ccc2ccccc12` [Compound A151, 1-((2-(2-(diethylamino)ethoxy)naphthalen-1-yl)thio)naphthalen-2-ol] was 75 to 100%; that for `Oc1ccc2ccccc2c1Cc1cccc2ccccc12` [Compound A052, 1-(naphthalen-1-ylmethyl)naphthalen-2-ol] was 75 to 100%.
`Oc1ccc2ccccc2c1Cc1c(O)ccc2ccccc12` [Compound A001, 1,1′-methylenebis(naphthalen-2-ol)] yielded an inhibition at 10 μM of 75 to 100%.

The target of a further series is T2, human ERG (ether-a-go-go related gene) potassium channel (Homo sapiens, UniProt Q12809).
T2 construct: expressed in transfected cells; host or cells: HEK293
The description is as above. Format: cell-based. To be noted: 1 μM test article, room temperature. A digest of the protocol:
as §1
For `CCN(CC)CCOc1ccc2ccccc2c1Cc1c(O)ccc2ccccc12.O=CO` [Compound A093, 1-((2-(2-(diethylamino)ethoxy)naphthalen-1-yl)methyl)naphthalen-2-ol formate], the “hERG 1 μM (ion-channel inhibition)” value is reported as “A (A = 75-100%)”.
On the same count and under the same terms, next, `Oc1cccc(-c2ccccc2)c1Cc1c(O)cccc1-c1ccccc1` [Compound A034, 2,2″-methylenebis(([1,1′-biphenyl]-3-ol))]: “D (D = <25%)”.

Still in this series, the particulars now being: 10 μM test article, room temperature.
Turning to `CCN(CC)CCOc1ccc2ccccc2c1Cc1c(O)ccc2ccccc12.O=CO` [Compound A093, 1-((2-(2-(diethylamino)ethoxy)naphthalen-1-yl)methyl)naphthalen-2-ol formate], the “hERG 10 μM (ion-channel inhibition)” value is “A (A = 75-100%)”.
The same measure, in the same setting: the value for `Oc1cccc(-c2ccccc2)c1Cc1c(O)cccc1-c1ccccc1` [Compound A034, 2,2″-methylenebis(([1,1′-biphenyl]-3-ol))] was “D (D = <25%)”.

The next series concerns the target T3, CaV1.2 (L-type voltage-dependent calcium channel; CACNA1C, CACNB2, CACNA2D1) (Homo sapiens, UniProt Q13936).
T3 construct: expressed in transfected cells; host or cells: CHO
Description: CaV1.2 channel whole-cell patch clamp (Ion Channel Activity Measurement). The note with it: human, pH 7.4, 1 μM test article, room temperature. The series is classed as cell-based. The method in brief:
(§2)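 Whole-cell patch clamp was run on CHO cells stably expressing CACNA1C/CACNB2/CACNA2D1 at 23–25 °C, with 10 mM CaCl2 TEA bath (pH 7.4) and CsCl pipette solution (pH 7.2). Currents were evoked from −80 mV to +10 mV for 0.3 s every 20 s without leak subtraction. Ascending concentrations were each applied for 5 min or until steady state.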
Background: The patch-clamp technique gives a direct electrical read-out from membranes.
For `CCN(CC)CCOc1ccc2ccccc2c1Nc1c(OC)ccc2ccccc12` [Compound A111-I-1, 2-(2-(diethylamino)ethoxy)-N-(2-methoxynaphthalen-1-yl)naphthalen-1-amine], the inhibition at 5 min, 1 μM was < 25%.
Same read-out and setting: next, `O=S(=O)(Nc1ccc2ccccc2c1Cc1c(O)ccc2ccccc12)c1ccccc1` [Compound A026, N-(1-((2-hydroxynaphthalen-1-yl)methyl)naphthalen-2-yl)benzenesulfonamide]: < 25%; `Cc1cc2ccccc2c(Cc2c(O)ccc3ccccc23)c1O` [Compound A031, 1-((2-hydroxynaphthalen-1-yl)methyl)-3-methylnaphthalen-2-ol]: < 25%; `CCN(CC)CCOc1ccc2ccccc2c1Sc1c(O)ccc2ccccc12` [Compound A151, 1-((2-(2-(diethylamino)ethoxy)naphthalen-1-yl)thio)naphthalen-2-ol]: < 25%.
Same read-out and setting: next, `Oc1ccc2ccccc2c1Cc1cccc2ccccc12` [Compound A052, 1-(naphthalen-1-ylmethyl)naphthalen-2-ol]: < 25%; `Oc1ccc2ccccc2c1Cc1c(O)ccc2ccccc12` [Compound A001, 1,1′-methylenebis(naphthalen-2-ol)]: < 25%.

Still in this series, the particulars now being: human, pH 7.4, 10 μM test article, room temperature, read-out: CaV 1.2 10 μM (ion-channel inhibition).
In the case of `O=S(=O)(Nc1ccc2ccccc2c1Cc1c(O)ccc2ccccc12)c1ccccc1` [Compound A026, N-(1-((2-hydroxynaphthalen-1-yl)methyl)naphthalen-2-yl)benzenesulfonamide], the inhibition at 5 min, 10 μM is 75 to 100%.
On the same count and under the same terms, next, `Cc1cc2ccccc2c(Cc2c(O)ccc3ccccc23)c1O` [Compound A031, 1-((2-hydroxynaphthalen-1-yl)methyl)-3-methylnaphthalen-2-ol]: 25 to 50%; `CCN(CC)CCOc1ccc2ccccc2c1Sc1c(O)ccc2ccccc12` [Compound A151, 1-((2-(2-(diethylamino)ethoxy)naphthalen-1-yl)thio)naphthalen-2-ol]: 75 to 100%; `Oc1ccc2ccccc2c1Cc1cccc2ccccc12` [Compound A052, 1-(naphthalen-1-ylmethyl)naphthalen-2-ol]: 75 to 100%.
The same measure, in the same setting: next, `Oc1ccc2ccccc2c1Cc1c(O)ccc2ccccc12` [Compound A001, 1,1′-methylenebis(naphthalen-2-ol)]: 75 to 100%.

The target of a further series is T4, human calcium channel, voltage-dependent, L type (CaV1.2: CACNA1C, CACNB2, CACNA2D1) (Homo sapiens, UniProt Q13936).
T4 construct: expressed in transfected cells; host or cells: CHO
T4 sequence (Q13936 1-2138 isoform Q13936-12): as the sequence (Q13936 1-2138 isoform Q13936-12) above
T4 sequence (Q08289 1-605 isoform Q08289-2 partner): as the sequence (Q08289 1-605 isoform Q08289-2 partner) above
T4 sequence (P54289 25-1091 isoform P54289-2 partner limits assumed): as the sequence (P54289 25-1091 isoform P54289-2 partner limits assumed) above
T4 sequence (P54289 957-1103 partner limits assumed): as the sequence (P54289 957-1103 partner limits assumed) above
The series is described as above. The series is classed as cell-based. To be noted: 1 μM test article, room temperature. A digest of the protocol:
as §2
For `CCN(CC)CCOc1ccc2ccccc2c1Cc1c(O)ccc2ccccc12.O=CO` [Compound A093, 1-((2-(2-(diethylamino)ethoxy)naphthalen-1-yl)methyl)naphthalen-2-ol formate], the “Cav1.2 1 μM (ion-channel inhibition)” value is listed as “C (C = 25-50%)”.
The same measure, in the same setting: next, `Oc1cccc(-c2ccccc2)c1Cc1c(O)cccc1-c1ccccc1` [Compound A034, 2,2″-methylenebis(([1,1′-biphenyl]-3-ol))]: “D (D = <25%)”.

Still in this series, the particulars now being: 10 μM test article, room temperature.
Consider `CCN(CC)CCOc1ccc2ccccc2c1Cc1c(O)ccc2ccccc12.O=CO` [Compound A093, 1-((2-(2-(diethylamino)ethoxy)naphthalen-1-yl)methyl)naphthalen-2-ol formate], for which the “CaV 1.2 10 μM (ion-channel inhibition)” value is “A (A = 75-100%)”.
Regarding `Oc1cccc(-c2ccccc2)c1Cc1c(O)cccc1-c1ccccc1` [Compound A034, 2,2″-methylenebis(([1,1′-biphenyl]-3-ol))], the “CaV 1.2 10 μM (ion-channel inhibition)” value is given as “B (B = = 50-75%)”.

Another series concerns the target T5, Iks potassium channel (KCNQ1/KCNE1) (Homo sapiens, UniProt P51787).
T5 construct: expressed in transfected cells; host or cells: CHO
Nature of the series: Iks channel whole-cell patch clamp (Ion Channel Activity Measurement). The series is classed as cell-based. The note with it: human, CHO cells stably expressing Iks channel (KCNQ1 and KCNE1), pH 7.4, 1 μM test article, room temperature.
Description: (§3) CHO cell line stably expressing Iks potassium voltage-gated channel subfamily Q member 1(KCNQ1) and potassium voltage-gated channel subfamily E regulatory subunit 1 (KCNE1), cDNA strictly similar to GenBank accession number: NM_000218 and NM_000219
(§4) Cells expressing channels were cultured in medium supplemented with 20% FBS in HAM'S F12 culture dish. Cells grew in a humidified incubator at 37° C. under 5% carbon dioxide. To passage cells, remove poor medium and rinse the cells once with PBS 1X. […] Place plate on a 37° C. warming incubator 5 min. As soon as cells are detached, add 5 ml of 37° C. complete medium. Draw cell suspension into a sterile pipet and homogenize cells gently to dissociate cells aggregates. Amplify or maintain the cells by seeding 2.5*105 cells in a 6 cm dish (final volume: 5 ml). To maintain electrophysiological performances, cell density must not exceed 80%. On the day before patch clamp experiment, 3*103 cells were seeded on coverslips in the 24-well plate and incubated at 37° C. in 5% carbon dioxide.
(§5) Extracellular solution (mM): 140 NaCl, 2.5 KCl, 1 MgCl2, 2 CaCl2, 5 Glucose, 10 HEPES, pH=7.4 with NaOH.
(§6) Pipette solution (mM): 120 K-aspartic, 10 HEPES, 5 MgCl2, 5 EGTA, 4 Na2-ATP 0.3 Na2-GTP, 14 mM Phosphocreatine disodium salt, 20 u/mL Creatine phosphor kinse pH 7.2 with KOH
(§7) Glass pipette (BF150-86-10, Sutter Instruments) was made by puller (P97, Sutter Instruments). The glass pipette was manipulated using Micro-manipulator (Carm-C-S, MCI Instruments) under the microscope (AE31EF-INV, Motic). After touching the cell, a slight suction was applied to achieve high seal (GΩ). Fast capacitance (in pF) compensation was made after high seal was achieved; after achieving high seal, the membrane was broken, Cell capacitance (in pF) compensation was made from whole-cell capacitance compensation after the whole cell mode was achieved. No leak subtraction was made.
(§8) Cell was incubated with the test article for 5 minutes, or until the current reached a steady-state level. Multiple concentrations of test article were tested. The test articles were applied gradually from low to high concentration. The test and control solutions were flown into a recording chamber mounted on the stage of an inverted microscope via a gravity-fed solution delivery system. During the experiment, solutions were withdrawn from the recording chamber by vacuum aspiration. Each concentration was tested at multiple times. Each cell acted as its own control. All tests were performed at room temperature (23-25° C.).
(§9) IKs current was measured using a pulse protocol consisting of −80 mV holding potential increment up to +60 mV over a period of 5 seconds. And then quickly repolarizedat −40 mV and maintained for 4 seconds.
`CCN(CC)CCOc1ccc2ccccc2c1Nc1c(OC)ccc2ccccc12` [Compound A111-I-1, 2-(2-(diethylamino)ethoxy)-N-(2-methoxynaphthalen-1-yl)naphthalen-1-amine]: the inhibition at 5 min, 1 μM is < 25%.
The same measure, in the same setting: the value for `O=S(=O)(Nc1ccc2ccccc2c1Cc1c(O)ccc2ccccc12)c1ccccc1` [Compound A026, N-(1-((2-hydroxynaphthalen-1-yl)methyl)naphthalen-2-yl)benzenesulfonamide] was 75 to 100%.
The same measure, in the same setting: next, `Cc1cc2ccccc2c(Cc2c(O)ccc3ccccc23)c1O` [Compound A031, 1-((2-hydroxynaphthalen-1-yl)methyl)-3-methylnaphthalen-2-ol]: < 25%; `CCN(CC)CCOc1ccc2ccccc2c1Sc1c(O)ccc2ccccc12` [Compound A151, 1-((2-(2-(diethylamino)ethoxy)naphthalen-1-yl)thio)naphthalen-2-ol]: 25 to 50%.
Same read-out and setting: the value for `Oc1ccc2ccccc2c1Cc1cccc2ccccc12` [Compound A052, 1-(naphthalen-1-ylmethyl)naphthalen-2-ol] was 25 to 50%; that for `Oc1ccc2ccccc2c1Cc1c(O)ccc2ccccc12` [Compound A001, 1,1′-methylenebis(naphthalen-2-ol)] was 50 to 75%.

Staying with this series, now noted: human, CHO cells stably expressing Iks channel (KCNQ1 and KCNE1), pH 7.4, 10 μM test article, room temperature.
`CCN(CC)CCOc1ccc2ccccc2c1Nc1c(OC)ccc2ccccc12` [Compound A111-I-1, 2-(2-(diethylamino)ethoxy)-N-(2-methoxynaphthalen-1-yl)naphthalen-1-amine] returned an inhibition at 5 min, 10 μM of 75 to 100%.
The same measure, in the same setting: next, `O=S(=O)(Nc1ccc2ccccc2c1Cc1c(O)ccc2ccccc12)c1ccccc1` [Compound A026, N-(1-((2-hydroxynaphthalen-1-yl)methyl)naphthalen-2-yl)benzenesulfonamide]: 75 to 100%; `Cc1cc2ccccc2c(Cc2c(O)ccc3ccccc23)c1O` [Compound A031, 1-((2-hydroxynaphthalen-1-yl)methyl)-3-methylnaphthalen-2-ol]: 50 to 75%.
On the same count and under the same terms, next, `CCN(CC)CCOc1ccc2ccccc2c1Sc1c(O)ccc2ccccc12` [Compound A151, 1-((2-(2-(diethylamino)ethoxy)naphthalen-1-yl)thio)naphthalen-2-ol]: 75 to 100%.
The same measure, in the same setting: next, `Oc1ccc2ccccc2c1Cc1c(O)ccc2ccccc12` [Compound A001, 1,1′-methylenebis(naphthalen-2-ol)]: 75 to 100%.

The target of a further series is T6, Iks potassium voltage-gated channel (KCNQ1 and KCNE1) (Homo sapiens, UniProt P51787).
T6 construct: expressed in transfected cells; host or cells: CHO
Described as above. Format: cell-based. To be noted: 1 μM test article, room temperature.
Description: as §3, §4, §5, §6, §7, §8, §9
`CCN(CC)CCOc1ccc2ccccc2c1Cc1c(O)ccc2ccccc12.O=CO` [Compound A093, 1-((2-(2-(diethylamino)ethoxy)naphthalen-1-yl)methyl)naphthalen-2-ol formate]: the “Iks 1 μM (ion-channel inhibition)” value is “D (D = <25%)”.

Still in this series, the particulars now being: 10 μM test article, room temperature.
Take `CCN(CC)CCOc1ccc2ccccc2c1Cc1c(O)ccc2ccccc12.O=CO` [Compound A093, 1-((2-(2-(diethylamino)ethoxy)naphthalen-1-yl)methyl)naphthalen-2-ol formate]: the “Iks 10 μM (ion-channel inhibition)” value is on record as “A (A = 75-100%)”.
